Source: US11160885B2, “Phospholipid composition and microbubbles and emulsions formed using same” (Microvascuar Therapeutics LLC, priority 2014, dated 2021)

Legend:
[1] = Ionization of DPPA as a function of pH; assay type: physicochemical
Excerpt: As those skilled in the art will appreciate, DPPA comprises two acidic protons. The pKa for the second acidic proton is about 7.9. FIG. 1 graphically depicts the ionization of DPPA as a function of pH. Curve 110 recites the percent of mono-anion 6 present, and curve 120 recites the percent of di-anion 7 present. At a pH of about 4 and higher, the combined percentages of mono-anion 6 and di-anion 7 total 100.
At a pH of about 7.9, DPPA comprises about 50 percent mono-anion 7 and about 50 percent di-anion 8. At a pH of about 7.0, DPPA comprises about 85 percent mono-anion 7 and about 15 percent di-anion 8.

[2] = cited from earlier work

percent di-anion ([1]; pH of about 7.0): about 15%
percent mono-anion ([1]; pH of about 7.0): about 85%
percent di-anion ([1]; pH of about 7.9): about 50%
percent mono-anion ([1]; pH of about 7.9): about 50%
SMILES: CCCCCCCCCCCCCCCC(=O)OC[C@H](COP(=O)(O)O)OC(=O)CCCCCCCCCCCCCCC [DPPA, dipalmitoylphosphatidic acid]
pKa for the second acidic proton [2]: about 7.9
